From patent US4876284A, “1-alkyl-2-aminotetralin derivatives” (Per Arvid Emil Carlsson, priority 1981, dated 1989)
Entries after “also recorded” stand apart in the source; their conditions may differ.

Key:
[1] = test system: brain DA synthesis rate; test: Formation of Dopa in rat brain regions (non-pretreated rats, NSD 1015); type: in vivo; set-up: formation of Dopa, Limbic forebrain / formation of Dopa, Striatum / formation of Dopa, Diencephalon / formation of Dopa, Brain-stem: unit not given here; conditions: for formation of Dopa, Brain-stem / formation of Dopa, Diencephalon / formation of Dopa, Hemispheral (cortical) parts / formation of Dopa, Limbic forebrain / formation of Dopa, Striatum: mean ± sem
Experimental: (§1) Immediately thereafter the animals were removed from the boxes. Part of
(§2) the animals were injected with NSD 1015 (100 mg/kg i.p.) and after a
(§3) further 30 min they were killed, the brains rapidly dissected and taken
(§4) for determination of the Dopa and 5HTP levels in different areas of the […]

[2] = test system: DA autoreceptors; test: Spontaneous locomotor activity in non-pretreated rats; type: in vivo, rat
Experimental: Untreated animals exposed to a new environment display an initial high motor activity which then gradually declines over a period of time. Administration of DA-receptor agonists (e.g. apomorphine) in doses where preferential autoreceptor stimulation is likely to occur, causes a depression of the spontaneous motility mentioned above, considered to be due to the DA autoreceptor-medicated attenuation of central DA transmission.
Rats (150-300 g) were injected subcutaneously with compound 2,5-OH-DPAT or apomorphine and after 5 minutes they were individually placed in motility boxes ("M/P 40 Fc Electronic Motility Meter". Motron Products, Stockholm) and the motor activity (0-30 min) was quantified. […] These findings are in congruence with the results obtained with the selective DA-autoreceptor agonist 3-PPP [S. Hjorth t al., Life Sciences, 28, 1225 (1981)] but in sharp contrast to the results obtained with 5-OH-DPAT and apomorphine (Table III).
Non-pretreated rats were given compound -2 (0.0625-16.0 mg/kg),
5OH--2-(di-n-propylamino) tetralin (5OH--DPAT; 0.0125-0.05 mg/kg,
apomorphine (0.1-1.0 mg/kg) or saline subcutaneously. Five minutes later
they were placed individually into motility meters and the locomotor

[3] = test system: central DA-receptor (pre- and/or postsynaptic); test: Rat-brain in-vivo tyrosine hydroxylation: Dopa accumulation after NSD 1015 in reserpine-pretreated rats; conditions: for Dopa-accumulation; ED50, Limbic: limbic forebrain; for Dopa-accumulation; ED50, Limbic / Dopa-accumulation; ED50, Striatum: reserpine-pretreated rats, half-maximal decrease in Dopa level, s.c.
Experimental: The compounds under evaluation were tested biochemically for central DA-receptor (pre- and/or postsynaptic) stimulating activity. The concept of this biochemical screening method is that a DA-receptor agonist will stimulate the receptor and through regulatory feedback systems effect a decline in tyrosine hydroxylase activity and thus a subsequent reduction in the synthesis rate for DA in the presynaptic neuron. Dopa formation, as determined after in-vivo inhibition of the aromatic L-amino acid decarboxylase with NSD 1015 (3-hydroxybenzyl-hydrazine hydrochloride), is taken as an indirect measure of DA synthesis rate.
Rats (150-300 g) pretreated with reserpine were given the compounds under evaluation. Gross behavioural observations (changes in motility, stereotypies etc.) were made in order to evaluate possible postsynaptic dopamine receptor activity. subsequent administration of NSD 1015, decapitation, brain dissection [corpora striata, limbic fore-brain and rest of the hemispheral parts (cortex)]homogenization, centrifugation, ion-exchange chromatography and spectro-fluorimetric measurements (all as described in detail by Wikstrom et al., in J. Med. Chem. 21, 864-867, 1978 and references cited therein), gave the actual Dopa levels.
Several doses (n=4-6) were tested in order to obtain dose-response curves for each compound and brain area. The dose of a compound producing a half-maximal decrease in the Dopa level in the rat brain part was then estimated. These values (ED50) are presented in Table I. (Simultaneous determination of the 5-HTP levels was also performed utilizing the same paradigm.)
^b Rats pretreated with reserpine (10 mg/kg i.p.; 18 h) were given th
compounds under evaluation. Fortyfive minutes later they were injected
with NSD 1015 (100 mg/kg i.p.) and after a further 30 min they were
decapitated, the brains rapidly dissected and taken for determination of
the Dopa and 5HTP levels in different areas of the brain. The dose of a
compound producing a halfmaximal decrease (ED50) in the Dopa level i
the rat brain part was then estimated from doseresponse curves comprising
4-6 dose levels. (For further details see the text and references).

[4] = test system: postsynaptic DA receptors; test: Antagonism of the reserpine plus α-methyl-para-tyrosine-induced immobility (neuroleptic syndrome) in rats; motor activity; conditions: for Motor activity: 10 mg/kg s.c., reserpine 10 mg/kg + α-methyl-para-tyrosine 250 mg/kg i.p., means ± s.e.m.; for motor response / postsynaptic DA-receptor stimulatory effects: comparative study, Table II, s.c.; for antagonism of the reserpine-induced syndrome / behaviour elicited / postsynaptic DA-receptor stimulation: reserpine and α-methyl-para-tyrosine pretreated rats
[5] = test system: brain 5-HT synthesis rate; test: Formation of 5-hydroxytryptophan in rat brain regions (non-pretreated rats, NSD 1015); type: in vivo; set-up: formation of 5-hydroxytryptophan, Limbic forebrain / formation of 5-hydroxytryptophan, Striatum / formation of 5-hydroxytryptophan, Diencephalon / formation of 5-hydroxytryptophan, Brain-stem: unit not given here; conditions: for formation of 5-hydroxytryptophan, Brain-stem / formation of 5-hydroxytryptophan, Diencephalon / formation of 5-hydroxytryptophan, Hemispheral (cortical) parts / formation of 5-hydroxytryptophan, Limbic forebrain / formation of 5-hydroxytryptophan, Striatum: mean ± sem
Experimental: as §1, §2, §3, §4

Br.CCCN(CCC)[C@H]1CCc2c(O)cccc2[C@H]1C (relative stereo) [Compound 2, cis-5-Hydroxy-1-methyl-2-(di-n-propylamino) tetralin hydrobromid]
formation of Dopa, Brain-stem ([1]; 0.0625 mg/kg s.c.): 177 ± 10 | formation of Dopa, Diencephalon ([1]; 0.0625 mg/kg s.c.): 148 ± 5 | formation of Dopa, Hemispheral (cortical) parts ([1]; 0.0625 mg/kg s.c.): 66 ± 2 | formation of Dopa, Limbic forebrain ([1]; 0.0625 mg/kg s.c.): 114 ± 6 | formation of Dopa, Striatum ([1]; 0.0625 mg/kg s.c.): 65 ± 4 | formation of Dopa, Brain-stem ([1]; 0.25 mg/kg s.c.): 170 ± 6 | formation of Dopa, Diencephalon ([1]; 0.25 mg/kg s.c.): 144 ± 2 | formation of Dopa, Hemispheral (cortical) parts ([1]; 0.25 mg/kg s.c.): 63 ± 2 | formation of Dopa, Limbic forebrain ([1]; 0.25 mg/kg s.c.): 116 ± 3 | formation of Dopa, Striatum ([1]; 0.25 mg/kg s.c.): 71 ± 5 | formation of Dopa, Brain-stem ([1]; 1.0 mg/kg s.c.): 167 ± 8 | formation of Dopa, Diencephalon ([1]; 1.0 mg/kg s.c.): 134 ± 7 | formation of Dopa, Hemispheral (cortical) parts ([1]; 1.0 mg/kg s.c.): 60 ± 1 | formation of Dopa, Limbic forebrain ([1]; 1.0 mg/kg s.c.): 107 ± 5 | formation of Dopa, Striatum ([1]; 1.0 mg/kg s.c.): 75 ± 6 | formation of Dopa, Brain-stem ([1]; 4.0 mg/kg s.c.): 170 ± 5 | formation of Dopa, Diencephalon ([1]; 4.0 mg/kg s.c.): 137 ± 3 | formation of Dopa, Hemispheral (cortical) parts ([1]; 4.0 mg/kg s.c.): 59 ± 2 | formation of Dopa, Limbic forebrain ([1]; 4.0 mg/kg s.c.): 113 ± 3 | formation of Dopa, Striatum ([1]; 4.0 mg/kg s.c.): 72 ± 4 | formation of Dopa, Brain-stem ([1]; 16.0 mg/kg s.c.): 170 ± 8 | formation of Dopa, Diencephalon ([1]; 16.0 mg/kg s.c.): 137 ± 5 | formation of Dopa, Hemispheral (cortical) parts ([1]; 16.0 mg/kg s.c.): 59 ± 2 | formation of Dopa, Limbic forebrain ([1]; 16.0 mg/kg s.c.): 108 ± 5 | formation of Dopa, Striatum ([1]; 16.0 mg/kg s.c.): 73 ± 4 | effect on brain DA synthesis rate, in words ([1]; non-pretreated rats, s.c.): significant decrease in rate brain DA synthesis rate; also recorded: marked difference in response between the limbic forebrain and the striatal structures | Locomotor activity ([2]; 0.0625 mg/kg s.c., non-pretreated rats): 146 ± 4 counts 0.30 min | Locomotor activity ([2]; 0.25 mg/kg s.c., non-pretreated rats): 117 ± 11 counts 0.30 min | Locomotor activity ([2]; 1.0 mg/kg s.c., non-pretreated rats): 82 ± 8 counts 0.30 min | Locomotor activity ([2]; 4.0 mg/kg s.c., non-pretreated rats): 62 ± 5 counts 0.30 min | Locomotor activity ([2]; 16.0 mg/kg s.c., non-pretreated rats): 63 ± 9 counts 0.30 min | maximal decrease of the initial high motor activity from control values ([2]; at about 4 mg/kg s.c., 0-30 min): 70% | effect on locomotor activity, in words ([2]; non-pretreated rats, s.c.): clear and significant dose-dependent decrease of the initial high motor activity; also recorded: No locomotor stimulation is ever seen | dose at which the maximal effect on motor activity is attained ([2]; s.c., 0-30 min): about 4 mg/kg | Dopa-accumulation; ED50, Limbic [3]: 0.67 μmol/kg s.c. | Dopa-accumulation; ED50, Striatum [3]: 0.80 μmol/kg s.c. | potency relative to 3-PPP (times more potent) ([3]; versus 3-PPP, Dopa accumulation): approximately 5 times | comparative potency, in words ([3]; versus trans-1-CH3-5-OH-DPAT, 5-OH-DPAT, apomorphine, Dopa accumulation): equipotent to trans-1-CH3 -5-OH-DPAT; also recorded: less potent than 5-OH-DPAT; also recorded: of the same order of potency as apomorphine | Motor activity [4]: 52 ± 5 counts 0-60 min | motor response / postsynaptic DA-receptor stimulatory effects [4]: failed to elicit a motor response that differed more than slightly from control values | antagonism of the reserpine-induced syndrome / behaviour elicited [4]: inability of compound 2 to antagonize the reserpine-induced syndrome | postsynaptic DA-receptor stimulation [4]: compound 2 is not | formation of 5-hydroxytryptophan, Brain-stem ([5]; 0.0625 mg/kg s.c.): 98 ± 4 | formation of 5-hydroxytryptophan, Diencephalon ([5]; 0.0625 mg/kg s.c.): 196 ± 8 | formation of 5-hydroxytryptophan, Hemispheral (cortical) parts ([5]; 0.0625 mg/kg s.c.): 40 ± 3 | formation of 5-hydroxytryptophan, Limbic forebrain ([5]; 0.0625 mg/kg s.c.): 314 ± 15 | formation of 5-hydroxytryptophan, Striatum ([5]; 0.0625 mg/kg s.c.): 458 ± 17 | formation of 5-hydroxytryptophan, Brain-stem ([5]; 0.25 mg/kg s.c.): 96 ± 11 | formation of 5-hydroxytryptophan, Diencephalon ([5]; 0.25 mg/kg s.c.): 170 ± 9 | formation of 5-hydroxytryptophan, Hemispheral (cortical) parts ([5]; 0.25 mg/kg s.c.): 46 ± 2 | formation of 5-hydroxytryptophan, Limbic forebrain ([5]; 0.25 mg/kg s.c.): 305 ± 14 | formation of 5-hydroxytryptophan, Striatum ([5]; 0.25 mg/kg s.c.): 448 ± 26 | formation of 5-hydroxytryptophan, Brain-stem ([5]; 1.0 mg/kg s.c.): 96 ± 7 | formation of 5-hydroxytryptophan, Diencephalon ([5]; 1.0 mg/kg s.c.): 170 ± 11 | formation of 5-hydroxytryptophan, Hemispheral (cortical) parts ([5]; 1.0 mg/kg s.c.): 43 ± 3 | formation of 5-hydroxytryptophan, Limbic forebrain ([5]; 1.0 mg/kg s.c.): 291 ± 9 | formation of 5-hydroxytryptophan, Striatum ([5]; 1.0 mg/kg s.c.): 420 ± 30 | formation of 5-hydroxytryptophan, Brain-stem ([5]; 4.0 mg/kg s.c.): 111 ± 8 | formation of 5-hydroxytryptophan, Diencephalon ([5]; 4.0 mg/kg s.c.): 176 ± 10 | formation of 5-hydroxytryptophan, Hemispheral (cortical) parts ([5]; 4.0 mg/kg s.c.): 47 ± 2 | formation of 5-hydroxytryptophan, Limbic forebrain ([5]; 4.0 mg/kg s.c.): 267 ± 6 | formation of 5-hydroxytryptophan, Striatum ([5]; 4.0 mg/kg s.c.): 479 ± 9 | formation of 5-hydroxytryptophan, Brain-stem ([5]; 16.0 mg/kg s.c.): 118 ± 4 | formation of 5-hydroxytryptophan, Diencephalon ([5]; 16.0 mg/kg s.c.): 214 ± 13 | formation of 5-hydroxytryptophan, Hemispheral (cortical) parts ([5]; 16.0 mg/kg s.c.): 48 ± 3 | formation of 5-hydroxytryptophan, Limbic forebrain ([5]; 16.0 mg/kg s.c.): 272 ± 20 | formation of 5-hydroxytryptophan, Striatum ([5]; 16.0 mg/kg s.c.): 478 ± 10 | effect on brain 5-HT synthesis rate, in words ([5]; non-pretreated rats, s.c.): without any concomitant change in brain 5-HT synthesis rate

CCCN(CCC)[C@@H]1CCc2c(O)cccc2[C@H]1C (relative stereo) [trans-1-CH35-OHDPAT, trans-1-methyl-5-hydroxy-2-(di-n-propylamino)tetralin]
Dopa-accumulation; ED50, Limbic [3]: 0.66 μmol/kg s.c. | Dopa-accumulation; ED50, Striatum [3]: 0.73 μmol/kg s.c. | Motor activity [4]: 406 ± 47 counts 0-60 min | motor response / postsynaptic DA-receptor stimulatory effects [4]: strong central postsynaptic DA-receptor stimulatory effects | antagonism of the reserpine-induced syndrome / behaviour elicited [4]: pronounced stereotyped and hyperactive behaviour | postsynaptic DA-receptor stimulation [4]: efficient postsynaptic DA-receptor stimulants
